From patent US7468384B2, “Microbicidal composition” (Rohm and Haas Company, priority 2004, dated 2008)
Read-outs that look alike come from different tables or passages of the source.

System: S. aureus 6538
Assay: Synergy test, microtiter plate high resolution MIC assay, bacterium
Format: cell-based
Conditions: for SI (calculated synergy index): S. aureus 6538, TSB
Text: One measure of synergism is the industrially accepted method described by Kull, F. C.; Eisman, P. C.; Sylwestrowicz, H. D. and Mayer, R. L., in Applied Microbiology 9:538-541 (1961), using the ratio determined by the formula: Qa/QA+Qb/QB=Synergy Index (“SI”) wherein: • QA=concentration of compound A (first component) in ppm, acting alone, which produced an end point (MIC of Compound A). • Qa=concentration of compound A in ppm, in the mixture, which produced an end point. • QB=concentration of compound B (second component) in ppm, acting alone, which produced an end point (MIC of Compound B). • Qb=concentration of compound B in ppm, in the mixture, which produced an end point.
When the sum of Qa/QA and Qb/QB is greater than one, antagonism is indicated. […] The lower the SI, the greater the synergy shown by that particular mixture. The minimum inhibitory concentration (MIC) of a microbicide is the lowest concentration tested under a specific set of conditions that prevents the growth of added microorganisms.
Synergy tests were conducted using standard microtiter plate assays with media designed for optimal growth of the test microorganism. Soybean Casein Digest Broth (Tryptic Soy Broth, TSB medium) or minimal salt medium supplemented with 0.2% glucose and 0.1% yeast extract (M9GY medium) was used for testing bacteria; Potato Dextrose Broth (PDB medium) was used for testing yeast and mold. In this method, a wide range of combinations of microbicides was tested by conducting high resolution MIC assays in the presence of various concentrations of MI. High resolution MICs were determined by adding varying amounts of microbicide to one column of a microtitre plate and doing subsequent ten-fold dilutions using an automated liquid handling system to obtain a series of endpoints ranging from 2 ppm to 10,000 ppm active ingredient.

Work on `Cn1sccc1=O` [2-methyl-3-isothiazolone, 2-methyl-4-isothiazolin-3-one] yielded an MIC (Staphylococcus aureus, 6538, 24 h, read-out: Qa: end-point activity (MIC) of MI in the mixture (MI alone, QA, where Qb = 0)) of 200 µg/mL, an MIC (Staphylococcus aureus, 6538, 48 h, read-out: MIC of component acting alone (QA / QB)) of 300 µg/mL and an MIC (Staphylococcus aureus, 6538, 48 h, read-out: Qa: end-point activity (MIC) of MI in the mixture (MI alone, QA, where Qb = 0)) of 300 µg/mL. For the same compound, the MIC (Staphylococcus aureus, 6538, 72 h, read-out: MIC of component acting alone (QA / QB)) was 300 µg/mL, the “SI (calculated synergy index)” value (Table 5, 48 hours) was 1.00 and the “SI (calculated synergy index)” value (Table 6, 24 hours) was 1.00.
